The IC50 is the concentration at which inhibition is half-maximal.

The structures appear in SMILES notation. “Also recorded” adds a separate entry of the source.

The text below walks through data of article PMC5369532, “NMR-filtered virtual screening leads to non-metal chelating metallo-β-lactamase inhibitors” (Chemical Science, 2016).

In one experiment the target is T1, VIM-2 (Escherichia coli, UniProt Q5U7L7).
T1 construct: made in house; host or cells: Escherichia coli
As to the kind of experiment: biochemical. It is filed as biochemical. The settings on record: for differences between the inhibitory activity with or without excess Zn(II): 0 μM, 1 μM and 100 μM Zn(II); for IC50: FC-5 based assay, n ≥ 3, read-out: IC50 (VIM-2). As to the method: (§1) Except where noted, recombinant forms of NDM-1, VIM-2, SPM-1, IMP-1, and BcII MBLs were produced in Escherichia coli and assays were carried out as described previously10. The IC50 values of all the compounds for VIM-2 were determined using […]
(§2) concentrations (0 μM, 1 μM, and 100 μM, see Fig. S8). The selectivity profiles of […]
as described above. The inhibitory activities of these compounds against CphA (B2 […]
(§3) MBL; IMP, Imipenemase; NDM, New Delhi MBL; TEM-1: Temomeira-type 1 […]
(§4) b The enzyme concentrations of the purified proteins were determined by measuring Abs@280nm using a NanoDrop (ThermoFisher) spectrometer and calculated molar extinction coefficient for each sample; concentrations of diluted solutions used in the assay were calculated from the original concentration. […]
(§5) negative controls. These were tested in same assay conditions but at 2mM instead of 100uM compound concentration. […]

In the next experiment the target is apo-VIM-2 (Escherichia coli, UniProt Q5U7L7). It is filed as binding. Particulars: 50 μM apo enzyme, 50 μM compound, 50 mM Tris-D11 pH 7.5. As to the method:
(§6) Except where noted, recombinant forms of NDM-1, VIM-2, SPM-1, IMP-1, and BcII MBLs were produced in Escherichia coli and assays were carried out as described […]
(§7) previously10. […]
(§8) Nuclear Magnetic Resonance (NMR) spectra were recorded using a Bruker AVIII 600 MHz NMR spectrometer equipped with a BB-19F/1H Prodigy N2 cryoprobe using 5 mm diameter NMR tubes (Norell). Typical experimental parameters for Carr-Purcell-Meiboom-Gill (CPMG) NMR spectroscopy were: total echo time, 40 ms; […]
(§9) The PROJECT-CPMG sequence
(§10) (90°x−[τ−180°y−τ−90°y−τ−180°y−τ]n−acq) was applied. 15 Water suppression was achieved by pre-saturation. Data were processed with Bruker 3.1 software. Prior to […]
(§11) Fourier transformation, data were multiplied with an exponential function with 0.5 Hz […]
(§12) line broadening. […]

The target in a further experiment is T2, di-Zn(II) VIM-2 (Escherichia coli, UniProt Q5U7L7).
T2 construct: made in house
Type of experiment: binding. The settings on record: 50 μM enzyme, 50 μM Zn(II), 50 μM compound, 50 mM Tris-D11 pH 7.5. As to the method: as §6, §7, §8, §9, §10, §11, §12

The subject of a further experiment is class B MBLs. The experiment in a line: Selectivity profile against class B MBLs (Fig. S21). Type of experiment: biochemical. As to the method: The 1H NMR and 13C NMR spectra for compounds 34a, 34b, 34, 35a, 35b, and 35 […]
as §1
(§13) the FC-5 based assay10. […]
concentrations (0 μM, 1 μM, and 100 μM, see Fig. S8). The selectivity profiles of compounds of interest against other B1 MBLs including VIM-511, VIM-110, NDM-1, SPM-1, and BcII, and TEM-112 (class A SBL) were determined using the same method as described above. The inhibitory activities of these compounds against CphA (B2 MBL)13 and L1 (B3 MBL)14 were determined using meropenem and nitrocefin, […]
at 100 μM. The details regarding enzyme concentrations, substrate concentration are in […]
Nuclear Magnetic Resonance (NMR) spectra were recorded using a Bruker AVIII 600 MHz NMR spectrometer equipped with a BB-19F/1H Prodigy N2 cryoprobe using 5 mm diameter NMR tubes (Norell). Typical experimental parameters for Carr-Purcell-Meiboom-Gill (CPMG) NMR spectroscopy were: total echo time, 40 ms; relaxation delay, 2 s; and number of transients, 128. The PROJECT-CPMG sequence (90°x−[τ−180°y−τ−90°y−τ−180°y−τ]n−acq) was applied. 15 Water suppression was achieved by pre-saturation. Data were processed with Bruker 3.1 software. Prior to […]

For the next experiment, the target named is T3, NDM-1 (Klebsiella pneumoniae, UniProt C7C422).
T3 construct: made in house; host or cells: Escherichia coli
T3 sequence (C7C422 29-270, looked up, species assumed): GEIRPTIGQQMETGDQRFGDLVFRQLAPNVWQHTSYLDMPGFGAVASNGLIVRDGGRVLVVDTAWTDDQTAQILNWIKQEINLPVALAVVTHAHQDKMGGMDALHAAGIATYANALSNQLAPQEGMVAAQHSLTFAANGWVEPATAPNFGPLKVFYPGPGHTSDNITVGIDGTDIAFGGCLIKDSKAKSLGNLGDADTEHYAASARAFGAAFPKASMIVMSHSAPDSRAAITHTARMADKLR
As to the kind of experiment: NDM-1 inhibition, selectivity profile (FC5 substrate). Type of experiment: biochemical. Particulars: Fig. 4. As to the method:
as §1, §13
(§14) concentrations (0 μM, 1 μM, and 100 μM, see Fig. S8). The selectivity profiles of compounds of interest against other B1 MBLs including VIM-511, VIM-110, NDM-1, SPM-1, and BcII, and TEM-112 (class A SBL) were determined using the same method as described above. The inhibitory activities of these compounds against CphA (B2 […]
(§15) Enzymea Categorya [E]b, (nM) Substrate [Substrate], (μM) […]
(§16) CphA Class B2 MBL 2.5 Meropenem 125 […]
(§17) TEM-1 Class A SBL 2.5 FC5 5 a MBL: Metallo β-lactamase; SBL: serine β-lactamase; VIM, Verona Integron–encoded MBL; IMP, Imipenemase; NDM, New Delhi MBL; TEM-1: Temomeira-type 1 […]
as §4
(§18) negative controls. These were tested in same assay conditions but at 2mM instead of 100uM compound concentration.

The next experiment deals with SPM-1 (Pseudomonas aeruginosa, UniProt Q8G9Q0). The experiment in a line: SPM-1 inhibition, selectivity profile (FC5 substrate). Type of experiment: biochemical. The settings on record: Fig. 4. As to the method: as §1, §13, §14, §15, §16, §17, §4, §18
SPM-1, sequence (Q8G9Q0 entry or part of it): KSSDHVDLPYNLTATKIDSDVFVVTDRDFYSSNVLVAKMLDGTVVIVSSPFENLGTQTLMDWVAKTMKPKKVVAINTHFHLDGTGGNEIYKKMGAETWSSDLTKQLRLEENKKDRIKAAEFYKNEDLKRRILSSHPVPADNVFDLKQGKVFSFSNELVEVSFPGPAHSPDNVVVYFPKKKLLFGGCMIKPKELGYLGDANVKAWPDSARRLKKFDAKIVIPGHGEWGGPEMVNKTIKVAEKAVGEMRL
A further experiment deals with T4, BcII (Bacillus cereus, UniProt P04190).
T4 construct: made in house; host or cells: Escherichia coli
T4 sequence (P04190 31-257): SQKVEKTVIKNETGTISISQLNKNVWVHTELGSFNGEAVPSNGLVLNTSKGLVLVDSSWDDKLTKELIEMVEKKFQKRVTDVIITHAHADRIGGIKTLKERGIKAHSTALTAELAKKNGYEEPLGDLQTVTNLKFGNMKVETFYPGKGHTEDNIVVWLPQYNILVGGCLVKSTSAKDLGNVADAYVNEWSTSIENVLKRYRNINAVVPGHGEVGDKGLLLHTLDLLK
The experiment in a line: BcII inhibition, selectivity profile (FC5 substrate). It is filed as biochemical. Particulars: Fig. 4. As to the method: as §1, §13, §14, §15, §16, §17, §4, §18

The target in another experiment is CphA (Aeromonas hydrophila, UniProt P26918). As to the kind of experiment: biochemical. As to the method:
as §1, §2
(§19) as described above. The inhibitory activities of these compounds against CphA (B2 MBL)13 and L1 (B3 MBL)14 were determined using meropenem and nitrocefin, […]
(§20) at 100 μM. […]
as §3, §4, §5

The next experiment addresses L1 (Stenotrophomonas maltophilia, UniProt P52700). As to the kind of experiment: biochemical. As to the method:
as §1, §2, §19, §20, §3, §4, §5

The target of another experiment is TEM-1 (Escherichia coli, UniProt P62593). The experiment in a line: TEM-1 inhibition, selectivity profile (FC5 substrate). Type of experiment: biochemical. The settings on record: Fig. 4.
TEM-1, sequence (P62593 24-286 limits assumed): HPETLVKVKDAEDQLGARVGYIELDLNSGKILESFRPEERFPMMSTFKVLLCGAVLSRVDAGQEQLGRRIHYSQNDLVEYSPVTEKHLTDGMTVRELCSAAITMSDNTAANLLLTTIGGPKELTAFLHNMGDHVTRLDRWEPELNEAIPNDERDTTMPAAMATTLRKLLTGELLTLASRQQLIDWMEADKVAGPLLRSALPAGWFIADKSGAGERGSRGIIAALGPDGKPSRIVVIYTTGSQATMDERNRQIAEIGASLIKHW
In the next experiment the target is VIM-1 (Pseudomonas aeruginosa, UniProt A0A0F7KYQ8). The experiment in a line: biochemical. Particulars: n ≥ 3.

L1, sequence (P52700 34-290): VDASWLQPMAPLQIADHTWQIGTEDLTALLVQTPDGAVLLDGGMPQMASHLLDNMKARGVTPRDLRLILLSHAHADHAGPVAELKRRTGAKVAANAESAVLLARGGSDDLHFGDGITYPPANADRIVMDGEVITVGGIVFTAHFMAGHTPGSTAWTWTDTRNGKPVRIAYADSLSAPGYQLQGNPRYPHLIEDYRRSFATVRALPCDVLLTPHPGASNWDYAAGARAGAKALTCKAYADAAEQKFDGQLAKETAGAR
CphA, sequence (P26918 28-254): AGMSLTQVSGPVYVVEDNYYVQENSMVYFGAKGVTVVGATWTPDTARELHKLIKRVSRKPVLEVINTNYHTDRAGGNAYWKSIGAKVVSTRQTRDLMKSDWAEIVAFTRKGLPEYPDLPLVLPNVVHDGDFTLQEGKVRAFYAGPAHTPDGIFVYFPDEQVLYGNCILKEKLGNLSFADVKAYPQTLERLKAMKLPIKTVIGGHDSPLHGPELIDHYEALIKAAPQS

For the compound `CN(C)c1ccc(/C=C/C(=O)c2ccccc2C(=O)O)cc1` [Compound 13], on VIM-2, the “differences between the inhibitory activity with or without excess Zn(II)” value is “no obvious differences” and the IC50 was found to be 135 µM. In addition, at apo-VIM-2, the “binding to apo-VIM-2 by 1H CPMG NMR” value was “weak binding; also recorded: weakly”. Also, the “binding to di-Zn(II) VIM-2 by 1H CPMG NMR” value on di-Zn(II) VIM-2 was “strong binding; also recorded: binds strongly”. Moreover, the “inhibition of the tested class B MBLs (in words)” value with class B MBLs is given as “broad-spectrum inhibition”.

For `O=C(O)c1cccc2c1C(=O)N(Cc1c(F)cccc1Cl)C2` [Compound 16], the IC50 at NDM-1, against SPM-1, at BcII, against CphA and against L1 was over 400 µM throughout. Besides, the “inhibition of class A serine β-lactamase TEM-1 (in words)” value against TEM-1 was “no inhibition was observed”.

As to `O=C(O)c1cccc2c1C(=O)N(c1cccc(C(F)(F)F)c1)C2` [Compound 17], the “differences between the inhibitory activity with or without excess Zn(II)” value at VIM-2 is given as “no obvious differences”. Moreover, the IC50 was 32.8 µM on VIM-2; over 400 µM against VIM-1; over 400 µM at NDM-1; over 400 µM against SPM-1; over 400 µM against BcII; over 400 µM on CphA. Also, the IC50 against L1 is over 400 µM. In addition, the “inhibition of class A serine β-lactamase TEM-1 (in words)” value on TEM-1 was “no inhibition was observed”. Also, on apo-VIM-2, the “binding to apo-VIM-2 by 1H CPMG NMR” value was “binding and bind”. Also, the “binding to di-Zn(II) VIM-2 by 1H CPMG NMR” value on di-Zn(II) VIM-2 is “binding and bind”.

As for `O=C(O)C(=Cc1ccc(-c2ccc(Cl)cc2)o1)C(=O)O` [Compound 12], at VIM-2, the “differences between the inhibitory activity with or without excess Zn(II)” value is recorded as “no obvious differences” and the IC50 stood at 87 µM. The “binding to apo-VIM-2 by 1H CPMG NMR” value on apo-VIM-2 is reported as “weak binding; also recorded: weakly”. The “binding to di-Zn(II) VIM-2 by 1H CPMG NMR” value at di-Zn(II) VIM-2 is on record as “strong binding; also recorded: binds strongly”. Besides, the “inhibition of the tested class B MBLs (in words)” value in the experiment on class B MBLs is “broad-spectrum inhibition”.
